# Literature values in article PMC6311893, “Computational prediction of plasma protein binding of cyclic peptides from small molecule experimental data using sparse modeling techniques” (BMC Bioinformatics, 2018).
# System: plasma protein
# Settings: fraction bound to plasma protein; small molecule dataset, sheet 1-SM (Set Dte = test, Dtr = training); ref Ingle et al.; cited from earlier work
row,Compound,PPB (fb)
1,CC1(C)S[C@@H]2[C@H](NC(=O)COc3ccccc3)C(=O)N2[C@H]1C(=O)O [Phenoxymethylpenicillin],0.67
2,CCCN(CCC)S(=O)(=O)c1ccc(C(=O)O)cc1 [Probenecid],0.88
3,Cc1ccc(NC(=O)c2ccc(CN3CCNCC3)cc2)cc1Nc1nccc(-c2cccnc2)n1 [N-desmethyl-imatinib],0.7
4,CC1(C)SC2C(NC(=O)C(N)c3ccc(Cl)c(Cl)c3)C(=O)N2C1C(=O)O (stereo not shown) [penicillin29],0.82
5,O=C(O)[C@H]1O[C@@H](Oc2cc3oc(-c4ccccc4)cc(=O)c3c(O)c2O)[C@H](O)[C@@H](O)[C@@H]1O [baicalin],0.66
6,Cc1c(N(C)CS(=O)(=O)O)c(=O)n(-c2ccccc2)n1C [dipyrone],0.6
7,CCc1oc2ccccc2c1C(=O)c1cc(Br)c(O)c(Br)c1 [benzbromarone],0.99
8,CC1(C)SC2C(NC(=O)CC(N)c3cccs3)C(=O)N2C1C(=O)O (stereo not shown) [penicillin72],0.32
9,CC(C)(O)c1ccccc1CC[C@@H](SCC1(CC(=O)O)CC1)c1cccc(/C=C/c2ccc3ccc(Cl)cc3n2)c1 [Montelukast],0.99
10,CN1C[C@H](C(=O)N[C@]2(C)O[C@@]3(O)[C@@H]4CCCN4C(=O)[C@H](Cc4ccccc4)N3C2=O)C[C@@H]2c3cccc4[nH]cc(c34)C[C@H]21 [dihydroergotamine],0.93
11,O=C(O)COC(=O)Cc1ccccc1Nc1c(Cl)cccc1Cl [aceclofenac],0.99
12,CC1(C)[C@@H](OC(=O)CCC(=O)O)CC[C@]2(C)[C@H]3C(=O)C=C4[C@@H]5C[C@@](C)(C(=O)O)CC[C@]5(C)CC[C@@]4(C)[C@]3(C)CC[C@@H]12 [carbenoxolone],0.99
13,O=P(O)(O)OC(Cn1cncn1)(Cn1cncn1)c1ccc(F)cc1F [Fosfluconazole],0.96
14,O=C(O)Cc1ccccc1Nc1c(Cl)cccc1Cl [diclofenac acid],0.99
15,COc1ccc(C(=O)N2CCCC2=O)cc1 [aniracetam],0.66

# Same assay, conditions: fraction bound to plasma protein; small molecule dataset, sheet 1-SM, Set Dtr; ref Ingle et al.; cited from earlier work
row,Compound,PPB (fb)
1,CC1(C)S[C@@H]2[C@H](NC(=O)[C@H](N)c3ccc(O)cc3)C(=O)N2[C@H]1C(=O)O [Amoxicillin],0.17
2,COc1cc2nc(N3CCN(C(=O)C4COc5ccccc5O4)CC3)nc(N)c2cc1OC (stereo not shown) [Doxazosin],0.97
3,C[C@H](O)C(=O)Nc1c(I)c(C(=O)NC(CO)CO)c(I)c(C(=O)NC(CO)CO)c1I [Iopamidol],0
4,Nc1ncnc2c1ncn2CCOCP(=O)(O)O [Adefovir],0.04
5,CCN(CC)CCNC(=O)c1ccc(NC(C)=O)cc1 [Acecainide (N-acetylprocainamide)],0.1
6,CCCCN1CCCCC1C(=O)Nc1c(C)cccc1C (stereo not shown) [Bupivacaine],0.95
7,Cc1nc2c([nH]1)-c1ccccc1N(C(=O)c1ccc(NC(=O)c3ccccc3-c3ccccc3)cc1)CC2 [Conivaptan],0.99
8,CCOC(=O)c1ncn2c1CN(C)C(=O)c1cc(F)ccc1-2 [Flumazenil],0.46
9,C[C@H]1[C@H](OC(=O)CCC(=O)O)O[C@@H]2O[C@@]3(C)CC[C@H]4[C@H](C)CC[C@@H]1[C@@]24OO3 [Artesunate],0.75

# Same assay, conditions: fraction bound to plasma protein; small molecule dataset, sheet 1-SM; ref Ingle et al.; cited from earlier work
row,Compound,PPB (fb)
1,CC1(C)SC2C(NC(=O)C(NC(=O)c3ccc(S(N)(=O)=O)cc3)c3ccccc3)C(=O)N2C1C(=O)O (stereo not shown) [penicillin35],0.42
2,CC(C)OC(=O)C(C)(C)Oc1ccc(C(=O)c2ccc(Cl)cc2)cc1 [fenofibrate],0.99
3,CC1(C)SC2C(NC(=O)C(NC(=O)c3ccccn3)c3ccccc3)C(=O)N2C1C(=O)O (stereo not shown) [penicillin36],0.63
4,C=C(CC)C(=O)c1ccc(OCC(=O)O)c(Cl)c1Cl [ethacrynic acid],0.9
5,COc1c2occc2cc2ccc(=O)oc12 [methoxsalen],0.83
6,COc1c(C)c2c(c(O)c1C/C=C(\C)CCC(=O)OCCN1CCOCC1)C(=O)OC2 [Mycophenolate mofetil],0.97
7,CC(C)(S)[C@@H](N)C(=O)O [penicillamine],0.8
8,O=c1[nH]c2ccccc2n1CCCN1CCN(C(c2ccccc2)c2ccccc2)CC1 [oxatomide],0.91
9,CN1C(C(=O)Nc2ccccn2)=C(O)c2ccccc2S1(=O)=O [piroxicam],0.99
10,Cn1cc(NC(=O)c2cc(NC(=O)c3cc(NC(=O)c4nsc(Cl)c4Cl)cn3C)cn2C)cc1C(=O)NCCC(=N)N [GSQ1530],0.89
11,Cc1nnc(NS(=O)(=O)c2ccc(N)cc2)s1 [sulfamethizole],0.9
12,CCCC(N)C(=O)NC1C(=O)N2C1SC(C)(C)C2C(=O)O (stereo not shown) [penicillin12],0.33
13,C1=Cc2cccc(OCC3CNCCO3)c2C1 (stereo not shown) [indeloxazine],0.94
14,CCn1cc(C(=O)O)c(=O)c2ccc(C)nc21 [nalidixic acid],0.94
15,CCCN(CC)C(CC)C(=O)Nc1c(C)cccc1C (stereo not shown) [etidocaine],0.94
16,Cc1c(C(C)C)c(=O)n(-c2ccccc2)n1C [propyphenazone],0.1
17,CN(CCCN1c2ccccc2CCc2ccccc21)CC(=O)c1ccc(Cl)cc1 [lofepramine],0.99
18,CCOC(=O)[C@H](CCc1ccccc1)N[C@@H](C)C(=O)N1C(=O)N(C)C[C@H]1C(=O)O [imidapril],0.2
19,[H]/N=C(/N)N/C(=N/[H])NCCc1ccccc1 [phenformin],0.16

# Same assay, conditions: plasma; cited from earlier work
row,Compound,PPB (fb)
1,CC[C@@]1(O)C[C@H](O[C@H]2C[C@H](N(C)C)[C@H](O[C@H]3C[C@H](O)[C@H](O[C@H]4CCC(=O)[C@H](C)O4)[C@H](C)O3)[C@H](C)O2)c2c(cc3c(c2O)C(=O)c2c(O)cccc2C3=O)[C@H]1C(=O)OC [aclarubicin],0.43
2,phenprocoumon,0.99
3,CCC(=O)C(CC(C)N(C)C)(c1ccccc1)c1ccccc1 (stereo not shown) [Methadone],0.84
4,CC/C=C\C/C=C\C/C=C\C/C=C\C/C=C\C/C=C/CCC(=O)O[C@@H](C(=O)O[C@H]1C[C@@]2(O)[C@@H](OC(=O)c3ccccc3)C3[C@](C)(C(=O)[C@H](OC(C)=O)C(=C1C)C2(C)C)[C@@H](O)C[C@H]1OC[C@@]31OC(C)=O)[C@@H](NC(=O)c1ccccc1)c1ccccc1 (stereo partly shown) [DHA Paclitaxel],0.9962
5,Cc1ncsc1CCCl [Chlormethiazole],0.64
6,CC1(C)C[C@@H]1C(=O)N/C(=C\CCCCSC[C@H](N)C(=O)O)C(=O)O [Cilastatin],0.37
7,Clevidipine,1
8,CN1C(=O)NC(=O)C(C)(C2=CCCCC2)C1=O (stereo not shown) [Hexobarbital],0.47
9,Oxytetracycline,0.2
10,ceftibuten,0.65
11,O=C1Nc2ccc(Cl)cc2C(c2ccccc2Cl)=NC1O (stereo not shown) [Lorazepam],0.91
12,C#CC(O)(/C=C/Cl)CC (stereo not shown) [ethchlorvynol],0.6
13,Nicardipine,0.98
14,Cc1nnc2n1-c1ccc(Cl)cc1C(c1ccccc1)=NC2 [Alprazolam],0.72
15,Oc1c(Cl)c(Cl)c(Cl)c(Cl)c1Cl [pentachlorophenol],0.99
